Test results reported in patent publication US6337184B1, “Molecular marker for muscle stem cells” (priority 1997, dated 2002).
“Also recorded” adds a separate entry of the source.

Assays:
Assay type in all cases: cell-based, mouse
[1] = tested on: C2C12 cells; assay: G-418 selection of untransfected and neo-transfected C2C12 cells; conditions: 500 μg/ml G-418, 11 days
Protocol: The Bcl-2 promoter-neo vector was prepared by using HindIII and MluI to excise the RSV promoter of pRSVneo (Gorman et al., Science 221:551-553 (1983)), after which an ˜2.6 kb PstI fragment of the human Bcl-2 promoter region (plasmid LB124; Chen et al., Mol. Cell. Biol. 15, 3840-3847 (1995)) was blunt-end ligated to the promotorless neo plasmid. C2C12 cells were transfected with Bcl-2-neo or pSV2neo using LIPOFECTAMINE™ (3:1 (w/w) 2,3-dioleyloxy-N-[2(spermine-carboxamido)ethyl]-N,N-dimethyl-1-propanaminiumtrifluoroacetate and dioleoyl phosphatidylethanolamine) (Gibco-BRL) and selected with G-418 (Dominov et al., Dev. Genet. 19, 108-118 (1996)).
To determine whether Bcl-2-expressing cells could function as stem cells, the differentiation of modified C2C12 cells that were selected based on their ability to express a Bcl-2 promoter fragment was examined. C2C12 cells were transfected with a plasmid in which expression of neomycin phosphotransferase was under the control of an ˜2.6 kb fragment of the human Bcl-2 promoter (Chen and Boxer, Mol. Cell. Biol. 15, 3840-3847 (1995)). From these transfections, four independent G-418-resistant lines (termed Bcl-2-neo cells) were isolated. […] In contrast, this treatment killed all untransfected C2C12 control cells and had no effect on C2C12 cells transfected with the ubiquitously expressed pSV2neo (FIG. 4). When transferred to fresh growth medium without G-418, the selected Bcl-2-neo cells resumed proliferation (FIG. 4) and were able to form multinucleate myotubes when switched to differentiation medium at confluence (not shown).

[2] = tested on: C2C12 cells; assay: Percentage of Bcl-2-expressing cells after apoptosis induction (immunostaining); conditions: serum-free medium with staurosporine; increased from less than 20%
Protocol: Apoptosis was induced by transferring the cells to serum-free differentiation medium, with or without 0.5 μM staurosporine, and cell viability was measured by the MTT assay of mitochondrial function (Jacobsen et al., EMBO J. 13, 1899-1910 (1994)).
The hamster mAb, 3 F11, is specific for mouse Bcl-2 (Krajewski et al., Cancer Res. 53, 4701-4714 (1993)) and was used at 25 μg/ml.

[3] = tested on: C2C12 cells; assay: MTT assay of mitochondrial function (cell viability) after apoptosis induction; conditions: serum-free medium with 0.5 μM staurosporine, compared to growth medium or 2% HS; 1-2 days
Protocol: C2C12 and Sol8 cells were maintained in growth medium (DMEM with 15% fetal bovine serum, 2 mM L-glutamine, 10 mM HEPES, pH 7.4, and 100 U/ml penicillin) and induced to form myotubes in differentiation medium (growth medium with 2% horse serum in place of fetal bovine serum) (Yaffe et al., Nature 270, 725-727 (1977); Blau et al., Science 230, 758-766 (1985); and Montarras et al., New Biologist 3, 592-600 (1991)). […] Apoptosis was induced by transferring the cells to serum-free differentiation medium, with or without 0.5 μM staurosporine, and cell viability was measured by the MTT assay of mitochondrial function (Jacobsen et al., EMBO J. 13, 1899-1910 (1994)).
In this experiment, apoptosis was induced and Bcl-2 expression, cell viability, and differentiation capability were examined in cultures of myogenic cells.

Row | Structure (SMILES) | effect on C2C12 cells carrying neo under SV40 promoter (pSV2neo) [1] | survival of C2C12 cells carrying Bcl-2 promoter-neo fusion gene (Bcl-2-neo) [1] | survival of untransfected C2C12 cells (control) [1] | percentage of muscle stem cells in the population [2] | number of viable C2C12 cells [3]
1 | CN[C@@H]1[C@@H](O)[C@@H](O[C@@H]2[C@@H](O)[C@H](O[C@H]3O[C@H]([C@@H](C)O)[C@@H](O)[C@H](O)[C@H]3N)[C@@H](N)C[C@H]2N)OC[C@]1(C)O [G-418] | no effect | a portion of C2C12 cells that carry a Bcl-2 promoter-neo fusion gene (Bcl-2-neo) survived; also recorded: a portion of the cells remained viable | killed all |  | 
2 | CN[C@@H]1C[C@H]2O[C@@](C)([C@@H]1OC)n1c3ccccc3c3c4c(c5c6ccccc6n2c5c31)C(=O)NC4 [staurosporine] |  |  |  | 50-80% | greatly reduced; also recorded: decreased
